Assays:
C. albicans C-65 = experiment: Candida systemic model in normal and compromised CF1 mice infected with C. albicans C-65, oral treatment; assay type: in vivo; conditions: for CFUs (GM): geometric mean of the logarithms of CFU in the kidneys
Method: The compounds of Examples 23-26 and itraconazole, fluconazole, and saperconazole were tested for in vivo oral antifungal activity in a Candida systemic model using CF1 male mice , average weight 20 g, Harlan Sprague Dawley, Inc., Indianapolis, Ind. infected by IV injection into the tail vein of C. albicans C-43 (5 million CFUs). The drugs were dissolved in polyethylene glycol-200 (PEG-200) and tested by orally administering 50, 25 and 10 mpk of each drug 4 hours post infection and once daily for 3 more days. Oral efficacy was measured after four (4) days by percent survival and by the number of organisms remaining in the kidneys i.e., the Colony Forming Units (CFUs). The mice were sacrificed and the kidneys of individual mice were homogenized in sterile saline, diluted and spread onto Mycosel agar. Colony counts were determined after 48 hours at 37°C. For calculation of geometric means, mice that died during the experiment were considered to have 10^9 CFUs/kidneys (based on numerous previous experiments).
The compounds of Examples 23-24 and itraconazole, fluconazole, were tested for in vivo oral antifungal anctivity in a Candida systemic model using normal and compromised CF1 mice infected with C. albicans C-65 (5 million CFUs). The procedure of Example 33 was followed. The drugs were dissolved in polyethylene glycol-200 ("PEG-200) at room temperature and tested by orally administering 100, 50, 25, 10 and 1 mpk of each drug. Oral efficacy was measured by percent survival and by the number of organisms remaining in the kidneys (CFUs) after four days. […] The pharmaceutical composition of the preferred compound of formula IIb of Eample 24 in hydroxypropyl beta cyclodextrin ("HPβCD") having 7.4 hydroxypropyl groups per HPβCD (obtained from Pharmatec, Inc., Alachua, FL 32615) was prepared by admixing the appropriate amount of the compound IIa with a 40% (w/v) solution of HPβCD (4 g of HPβCD per 10 mL of purified water). Gentle heating was used to form a clear solution. For the 10 mpk dose, 12 mg of Ha was added to 6 mL of a 40% w/v solution of HPβCD. For dilutions, sterile water was added to the solution with mixing. The pharmaceutical composition of itraconazole and the Pharmatec HPβCD described above was prepared as follows. Propylene glycol (10 mL) was admixed with 0.95 mL of concentrated HCI at 40°-45°C with stirring. Itraconazole (2.5 g) was added thereto and stirring was continued until homogeneous. The mixture so formed was cooled to 20° to 30°C and admixed with a solution of 60 g of HPβCD in 40 mL of purified water to form a clear solution. The pH was adjusted to a value of 1.9-2.1 with 10N NaOH and sufficient purified water added (with mixing) to a final volume of 100 mL. For dilutions, sterile water was added to the itraconazole - HPβCD.

Candida = Candida vaginal infection in a hamster model; assay type: in vivo; conditions: result in words
[1] = 600 Rads Mice (compromised), 10 MPK PO in PEG-200, 1/day x 4 days, day 4 post-infection
[2] = 600 Rads Mice (compromised), 10 MPK PO in PEG-200, day 4
[3] = 600 Rads Mice (compromised), 25 MPK PO in PEG-200, 1/day x 4 days, day 4 post-infection
[4] = 600 Rads Mice (compromised), 25 MPK PO in PEG-200, day 4
[5] = 600 Rads Mice (compromised), 50 MPK PO in PEG-200, 1/day x 4 days, day 4 post-infection
[6] = 600 Rads Mice (compromised), 50 MPK PO in PEG-200, day 4
[7] = 600 Rads Mice (compromised), 100 MPK PO in PEG-200, 1/day x 4 days, day 4 post-infection
[8] = 600 Rads Mice (compromised), 100 MPK PO in PEG-200, day 4
[9] = Normal Mice, 1 MPK PO in PEG-200, 1/day x 4 days, day 4 post-infection
[10] = Normal Mice, 1 MPK PO in PEG-200, day 4
[11] = Normal Mice, 10 MPK PO in PEG-200, 1/day x 4 days, day 4 post-infection
[12] = Normal Mice, 10 MPK PO in PEG-200, day 4
[13] = Normal Mice, 25 MPK PO in PEG-200, 1/day x 4 days, day 4 post-infection
[14] = Normal Mice, 25 MPK PO in PEG-200, day 4
[15] = Normal Mice, 50 MPK PO in PEG-200, 1/day x 4 days, day 4 post-infection
[16] = Normal Mice, 50 MPK PO in PEG-200, day 4

SMILES | % S (Percent Survival) (C. albicans C-65; [1]) | CFUs (GM) (C. albicans C-65; [2]) | % S (Percent Survival) (C. albicans C-65; [3]) | CFUs (GM) (C. albicans C-65; [4]) | % S (Percent Survival) (C. albicans C-65; [5]) | CFUs (GM) (C. albicans C-65; [6]) | % S (Percent Survival) (C. albicans C-65; [7]) | CFUs (GM) (C. albicans C-65; [8]) | % S (Percent Survival) (C. albicans C-65; [9]) | CFUs (GM) (C. albicans C-65; [10]) | % S (Percent Survival) (C. albicans C-65; [11]) | CFUs (GM) (C. albicans C-65; [12]) | % S (Percent Survival) (C. albicans C-65; [13]) | CFUs (GM) (C. albicans C-65; [14]) | % S (Percent Survival) (C. albicans C-65; [15]) | CFUs (GM) (C. albicans C-65; [16]) | also measured
CCC(C)n1ncn(-c2ccc(N3CCN(c4ccc(OCC5COC(Cn6cncn6)(c6ccc(Cl)cc6Cl)O5)cc4)CC3)cc2)c1=O (centres unmarked) [Itraconazole, reference compound] | 0% | 9.00 | 0% | 9.00 | 0% | 9.00 | 20% | 8.45 | 0% | 900 | 30% | 7.64 | 50% | 6.93 | 60% | 5.98 | % S (Percent Survival) (C. albicans C-65; 600 Rads Mice (compromised), 10 MPK PO in Beta-CD-H, 1/day x 4 days, day 4): 30%; CFUs (GM) (C. albicans C-65; 600 Rads Mice (compromised), 10 MPK PO in Beta-CD-H, day 4): 8.11; % S (Percent Survival) (C. albicans C-65; 600 Rads Mice (compromised), 25 MPK PO in Beta-CD-H, 1/day x 4 days, day 4): 60%; CFUs (GM) (C. albicans C-65; 600 Rads Mice (compromised), 25 MPK PO in Beta-CD-H, day 4): 7.98; % S (Percent Survival) (C. albicans C-65; Normal Mice, 10 MPK PO in Beta-CD-H (HPβCD vehicle for itraconazole), 1/day x 4 days, day 4): 0%; CFUs (GM) (C. albicans C-65; Normal Mice, 10 MPK PO in Beta-CD-H, day 4): 9.00; % S (Percent Survival) (C. albicans C-65; Normal Mice, 25 MPK PO in Beta-CD-H (HPβCD vehicle for itraconazole), 1/day x 4 days, day 4): 100%; CFUs (GM) (C. albicans C-65; Normal Mice, 25 MPK PO in Beta-CD-H, day 4): 6.19
CC[C@@H](C)n1ncn(-c2ccc(N3CCN(c4ccc(OC[C@@H]5CO[C@@](Cn6cncn6)(c6ccc(F)cc6F)C5)cc4)CC3)cc2)c1=O [Example 23] | 0% | 9.00 | 20% | 8.65 | 30% | 7.33 | 50% | 6.43 | 0% | 9.00 | 30% | 7.12 | 60% | 5.74 | 90% | 4.69 | –
CC[C@H](C)n1ncn(-c2ccc(N3CCN(c4ccc(OC[C@@H]5CO[C@@](Cn6cncn6)(c6ccc(F)cc6F)C5)cc4)CC3)cc2)c1=O [Example 24, (-)-[(5R)-cis]-4-[4-[4-[4-[[5-(2,4-Difluorophenyl)-5-(1H-1,2,4-triazol-1-ylmethyl)tetrahydrofuran-3-yl]methoxy]phenyl]-1-piperazinyl]phenyl]-2,4-dihydro-2-[(1S)-(1-methylpropyl)]-3H-1,2,4-triazol-3-one] | 0% | 9.00 | 20% | 8.27 | 30% | 7.58 | 80% | 6.28 | 30% | 7.73 | 40% | 7.48 | 90% | 4.67 | 100% | 4.44 | % S (Percent Survival) (C. albicans C-65; 600 Rads Mice (compromised), 10 MPK PO in Beta-CD, 1/day x 4 days, day 4): 30%; CFUs (GM) (C. albicans C-65; 600 Rads Mice (compromised), 10 MPK PO in Beta-CD, day 4): 7.88; % S (Percent Survival) (C. albicans C-65; Normal Mice, 1 MPK PO in Beta-CD (hydroxypropyl-beta-cyclodextrin), 1/day x 4 days, day 4): 70%; CFUs (GM) (C. albicans C-65; Normal Mice, 1 MPK PO in Beta-CD, day 4): 5.97; % S (Percent Survival) (C. albicans C-65; Normal Mice, 10 MPK PO in Beta-CD (hydroxypropyl-beta-cyclodextrin), 1/day x 4 days, day 4): 100%; CFUs (GM) (C. albicans C-65; Normal Mice, 10 MPK PO in Beta-CD, day 4): 4.94; oral activity in the Candida systemic model compared with itraconazole (C. albicans C-65; doses of 50 and 25 mpk, each drug dissolved in PEG-200, result in words): more active orally; activity against systemic candidiasis compared with itraconazole and saperconazole (C. albicans C-65; normal and compromised mice, result in words (text refers to Tables II and V)): more active; activity against a Candida vaginal infection compared with itraconazole and saperconazole (Candida): more active

Source: patent EP0610377B1, “TRI-SUBSTITUTED TETRAHYDROFURAN ANTIFUNGALS” (SCHERING CORPORATION, priority 1991, dated 1993)
